Measured values reported in patent US9636379B2, “Compositions and methods for treating pruritus” (Washington University, priority 2007, dated 2017).
Where no end group is shown, it is not given here.

Key:
5-HT fibers = assay: Morphine-induced scratching after 5,7-DHT; type: in vivo, mice; conditions: vs saline vehicle
Excerpt: Repeated measures analysis of variance (ANOVA); *P<0.05, n=5-11.

GRPR [1] = type: in vivo; conditions: GRPR mutant mice compared to wild-type mice
Excerpt: All data are presented as means±s.e.m.
FIG. 17A-C depicts scratching behavior induced by i.d. injection of histamine, endothelin-1 or 5-HT in GRPR mutant (black bars) and wild-type mice (white bars).
To ascertain whether GRPR is required for itch sensation, we studied the effects of several pruritogenic agents in GRPR mutant mice and wild-type mice.

NMBR/GRPR = type: in vivo; conditions: NMBR/GRPR double knockout mice; for response to i.d. pruritogens: i.d. in 50 μl; for response to intrathecal bombesin-like peptides: GRP (1 nM), Bombesin (0.05 nM), NMB (2 nM)
Protocol: FIG. 44 depicts the itch behavior of NMBR/GRPR double knockout mice in response to 3 different bombesin-like peptides. […] GKO, GRPR mutant mice; DKO, NMBR/GRPR double KO mice.
(A), (C), (E), (G) and (I) are time course curve, while (B), (D), (F), (H) and (J) represent the total value comparisons from the same experiment. *p<0.05, **p<0.01; One-way ANOVA followed by Newman-Keuls post hoc test was used in all statistical analysis.
Histamine was injected i.d. in 50 μl at 20 μg/mouse. Compound 48/80 was injected i.d. in 50 μl at 20 μg/mouse. ET-1 was injected i.d. in 50 μl at 1 ng/mouse. […] Serotonin (5-HT) was injected i.d. in 50 μl at 1 1 nmol/μl.

NMBR = target: T1, NMBR (Mus musculus, UniProt O54799); assay: Effect of NMBR antagonist on NMB-, GRP- and chloroquine-evoked scratching; type: in vivo, mice
T1 construct: NMBR is expressed in the most superficial layer of the dorsal spinal cord; endogenous in cells; host or cells: living wild-type mice, spinal cord (intrathecal injection)
T1 sequence (O54799 1-390): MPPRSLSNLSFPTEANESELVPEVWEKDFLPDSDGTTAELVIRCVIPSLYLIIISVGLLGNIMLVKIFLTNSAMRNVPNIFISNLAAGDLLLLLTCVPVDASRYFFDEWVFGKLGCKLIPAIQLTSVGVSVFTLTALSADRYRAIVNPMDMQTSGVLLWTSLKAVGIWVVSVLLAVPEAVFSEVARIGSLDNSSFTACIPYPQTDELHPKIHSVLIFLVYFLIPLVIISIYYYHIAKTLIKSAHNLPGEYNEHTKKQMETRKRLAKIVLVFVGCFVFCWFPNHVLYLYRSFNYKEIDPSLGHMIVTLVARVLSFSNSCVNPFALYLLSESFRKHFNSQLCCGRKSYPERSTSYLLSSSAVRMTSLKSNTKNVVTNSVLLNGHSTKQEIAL
Protocol: (B) Dose response experiment depicting the NMB-evoked scratching behavior in wild type mice measured over 30 minutes after injection with 1 and 2 nmol of PD168268.
(A) Number of scratches over time. (B) Comparison of cumulative number of scratches of the results shown in (A). PD168268 was injected at 2 nmol/mouse 10 min before GRP 1 nmol/mouse. p<0.01 (p=0.0072), t test, when the data in first 5 min was compared.
(A) Number of scratches over time. (B) Comparison of cumulative number of scratches of the results shown in (A). […] One-way ANOVA followed by Newman-Keuls post hoc test.

VR1 vanilloid receptor [2] = target: T2, VR1 vanilloid receptor (Mus musculus, UniProt Q704Y3)
VR1 vanilloid receptor [3] = target: T2, VR1 vanilloid receptor; assay: Depletion of primary fibers by intrathecal resiniferatoxin (immunocytochemistry); type: in vivo, mice; set-up: An approximate 80% of GRP+ neurons express TRPV1, a vanilloid receptor important for detecting thermal and chemical stimuli in the DRGs; endogenous in cells; host or cells: living mice, TRPV1+ primary afferent fibers (intrathecal RTX)
Excerpt: FIG. 32A-L depicts micrographs showing that peptidergic but not non-peptidergic fibers were depleted by resiniferatoxin (RTX) treatment. […] The IB4 positive non-peptidergic fibers remain the same after RTX treatment (C) compared with the control group (D). […] GRP+ fibers are almost lost in the RTX treated group (I) compared with the control group (J). TRPV1 staining is lost after RTX treatment (K) compared to the control group (L).
An approximate 80% of GRP+ neurons express TRPV1, a vanilloid receptor important for detecting thermal and chemical stimuli in the DRGs (FIG. 31). […] Non-peptidergic primary fibers labeled by IB4-FITC are normal (FIG. 32C, D). […] Motor function is not affected by the depletion of TRPV1+ primary fibers (FIG. 33B).
Mice were given resiniferatoxin (Sigma, 25 ng/5 ul) or vehicle intrathecally under isoflurane-induced anesthesia. The behavior was tested 3-5 days later.

GRPR [4] = target: T3, GRPR (Mus musculus, UniProt P21729); assay: Scratching behavior after intrathecal injection of GRPR agonist GRP18-27; type: in vivo, mice
T3 construct: GRP acts through spinal GRPR to mediate the transmission of information that drives scratching behavior; endogenous in cells; host or cells: living mice (C57BL/6J / wild-type littermates), spinal dorsal horn neurons reached by intrathecal injection
Protocol: (§1) FIG. 7A-E depicts graphs showing the effect of GRPR agonist and antagonist on scratching behavior. (A) Scratching behavior is monitored after intrathecal (i.t.) injection of GRP18-27 (0.03, 0.1 or 1.0 nmol/5 μl). GRP18-27 induced dose-dependent scratching behavior in wild-type mice (n=7; open circles). […] ANOVA; **P<0.01. […] ANOVA; *P<0.05.
(§2) To determine whether an activation of GRPR in the spinal cord may facilitate the transmission of itch signals, which would subsequently result in increased scratching behavior, the GRPR agonist GRP18-27 was intrathecally administered (Ladenheim et al., 1996).

GRPR [5] = target: T3, GRPR; assay: Scratching induced by i.d. pruritogenic agents after i.t. GRPR antagonist; type: in vivo, mice; conditions: i.t. antagonist 10 min before i.d. injection of each pruritogenic agent; vs saline control
GRPR [6] = target: T3, GRPR; set-up: species or system mice; conditions: in vivo
GRPR [7] = target: T3, GRPR; type: in vivo, mice
GRPR [8] = assay: Scratching behavior after intrathecal injection of GRPR agonist GRP18-27; type: in vivo, mice; conditions: GRPR mutant mice compared with wild-type
Protocol: as §1, §2

[9] = three days after i.t. 25 ng/5 μl
[10] = antagonist 1.0 nmol i.t. vs vehicle

T3 sequence (P21729 whole entry): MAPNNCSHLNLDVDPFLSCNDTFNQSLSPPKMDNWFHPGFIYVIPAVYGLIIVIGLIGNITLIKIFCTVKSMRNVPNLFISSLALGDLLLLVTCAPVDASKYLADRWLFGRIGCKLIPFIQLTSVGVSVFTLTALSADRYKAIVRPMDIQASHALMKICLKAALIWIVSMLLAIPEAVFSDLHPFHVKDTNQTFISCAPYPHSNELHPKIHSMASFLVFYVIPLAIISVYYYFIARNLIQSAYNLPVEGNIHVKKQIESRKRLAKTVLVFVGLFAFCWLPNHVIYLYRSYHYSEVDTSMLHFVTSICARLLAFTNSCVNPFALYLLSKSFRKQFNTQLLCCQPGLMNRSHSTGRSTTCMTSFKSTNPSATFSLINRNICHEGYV
T2 sequence (Q704Y3 whole entry): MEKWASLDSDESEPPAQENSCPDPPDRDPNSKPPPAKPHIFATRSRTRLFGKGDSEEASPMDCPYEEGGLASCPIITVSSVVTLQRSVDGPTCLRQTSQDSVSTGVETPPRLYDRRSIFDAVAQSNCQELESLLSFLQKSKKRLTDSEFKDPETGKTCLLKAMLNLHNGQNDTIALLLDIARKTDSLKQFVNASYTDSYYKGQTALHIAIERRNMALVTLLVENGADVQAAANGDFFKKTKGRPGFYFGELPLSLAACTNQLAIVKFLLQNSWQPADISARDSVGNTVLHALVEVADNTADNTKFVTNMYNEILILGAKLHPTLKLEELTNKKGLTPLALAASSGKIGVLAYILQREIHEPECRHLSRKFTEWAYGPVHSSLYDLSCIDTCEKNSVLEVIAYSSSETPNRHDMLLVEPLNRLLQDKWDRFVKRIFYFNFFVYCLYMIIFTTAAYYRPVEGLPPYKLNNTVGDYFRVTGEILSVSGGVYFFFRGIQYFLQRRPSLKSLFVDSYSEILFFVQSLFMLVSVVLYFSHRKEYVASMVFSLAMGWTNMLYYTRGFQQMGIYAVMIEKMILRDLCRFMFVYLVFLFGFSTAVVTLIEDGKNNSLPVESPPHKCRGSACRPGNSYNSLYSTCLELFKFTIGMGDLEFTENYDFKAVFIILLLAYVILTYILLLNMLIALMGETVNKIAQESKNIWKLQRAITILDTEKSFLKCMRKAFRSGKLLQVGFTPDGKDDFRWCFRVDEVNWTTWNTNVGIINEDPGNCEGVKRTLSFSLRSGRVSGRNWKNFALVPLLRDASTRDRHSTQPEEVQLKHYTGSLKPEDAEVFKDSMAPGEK

## NCCc1c[nH]c2c(O)cc(O)cc12 [5,7-DHT]
5-HT fibers
  morphine-induced scratching behavior: reduces, but does not eliminate scratching behavior

## NCCc1c[nH]c2ccc(O)cc12 [5-HT, serotonin]
GRPR [1]
  scratching behavior induced by i.d. injection, GRPR mutant vs wild-type mice: normal scratching behaviors
NMBR/GRPR
  response to i.d. pruritogens: deficits

## C[C@@](Cc1c[nH]c2ccccc12)(NC(=O)Nc1ccc([N+](=O)[O-])cc1)C(=O)NCC1(c2ccccn2)CCCCC1 [PD168268]
NMBR; 2 nmol/mouse 10 min before GRP 1 nmol/mouse
  GRP-induced scratching behaviors: inhibited
NMBR; i.t. 1 or 2 nM/mouse 10 minutes before 2 nM/mouse of NMB, wild type mice
  NMB-induced scratching behaviors: inhibited
NMBR; i.t. 10 minutes before i.d. chloroquine 200 μg/mouse in 50 μL
  chloroquine-induced scratching behaviors: inhibited

## CCN(CC)CCCC(C)Nc1ccnc2cc(Cl)ccc12 (stereo not shown) [chloroquine]
NMBR/GRPR
  response to i.d. pruritogens: deficits

## NCCc1c[nH]cn1 [histamine]
GRPR [1]
  scratching behavior induced by i.d. injection, GRPR mutant vs wild-type mice: either not significantly affected or modestly reduced
NMBR/GRPR
  response to i.d. pruritogens: deficits

## C=C(C)[C@]12C[C@@H](C)[C@@]34O[C@](Cc5ccccc5)(O[C@@H]1[C@@H]3C=C(COC(=O)Cc1ccc(O)c(OC)c1)C[C@]1(O)C(=O)C(C)=C[C@@H]41)O2 [resiniferatoxin]
VR1 vanilloid receptor [2]; after RTX treatment
  motor function (rotarod): not affected
  tail-flick latency: significantly increased
VR1 vanilloid receptor [2]; mouse, in vivo
  morphine-induced scratching behavior: significantly reduced
VR1 vanilloid receptor [3]; after RTX treatment
  GRPR expression: remains normal
VR1 vanilloid receptor [3]; [9]
  GRP+ fibers: almost depleted
  PKCγ (LIIi layer): remains normal
  TRPV1 signal: almost lost
  non-peptidergic primary fibers labeled by IB4-FITC: normal
  peptidergic fibers labeled by CGRP: largely diminished

## D-Phe-6-Bn(6-13)OMe
GRPR [4]; i.t. antagonist 1.0 nmol/2.5 μl, GRP18-27 1.0 nmol/2.5 μl, vs vehicle
  GRP18-27-induced scratching behavior: significantly inhibited
GRPR [5]
  scratching behavior induced by i.d. pruritogenic agents: significant reduction of the scratching behavior
GRPR [6]
  scratching induced by intrathecal morphine: significantly blocked
GRPR [7]; [10]
  mechanical thresholds: not significantly affected
  tailflick latency: comparable
GRPR [7]; morphine 0.3 nmol/5 μl, antagonist 1.0 nmol, vs vehicle
  analgesic effect of intrathecal morphine: not significantly affected

## GRP18-27: GRPR agonist, intrathecally administered
GRPR [4]; wild-type mice, i.t. 0.03, 0.1 or 1.0 nmol/5 μl
  scratching behavior after i.t. GRP18-27: increased scratching behavior was found in a dose-dependent manner
GRPR [8]
  number of scratching behaviors after i.t. GRP18-27: significantly lower

## GRP: gastrin-releasing peptide, bombesin-like peptide given intrathecally (VPLPAGGGTVLTKMYPRGNHWAVGHLM; ends and bridges not checked; UniProt P07492 24-50, looked up)
NMBR/GRPR
  response to intrathecal bombesin-like peptides: deficits

## SLIGRL-NH2
GRPR [1]
  scratching behavior induced by i.d. injection, GRPR mutant vs wild-type mice: significantly reduced

## endothelin-1: exerts its pruritic effect through ETA receptors
GRPR [1]
  scratching behavior induced by i.d. injection, GRPR mutant vs wild-type mice: normal scratching behaviors
NMBR/GRPR
  response to i.d. pruritogens: deficits

## neuromedin B [NMB]
NMBR/GRPR
  response to intrathecal bombesin-like peptides: deficits
